Data from patent US6191282A, “Substituted 5-membered ring heterocycles comprising a bicyclic or tricyclic group their preparation and their use” (Hoechst Marion Roussel, priority 1993, dated 2001).
Where two headings read alike, the source gives them in different places.

Tested on: gel-filtered human thrombocytes
Test: Inhibition of the aggregation of gel-filtered human thrombocytes following stimulation with ADP or thrombin (Test method 1)
Assay type: cell-based
Details: 1 mg/ml fibrinogen, 37° C., GFP from 2-4 donors
Method: As a functional test, measurement is made of the inhibition of the aggregation of gel-filtered human thrombocytes, following stimulation with ADP or thrombin, by the compounds according to the invention.
For this purpose, human thrombocytes were isolated from platelet-rich plasma (PRP) by gel filtration on Sepharose 2 B. The resulting suspension of gel-filtered platelets (GFP), which contained 3×10^8 platelets/ml, was activated in the presence of 1 mg/ml of fibrinogen either with 10 μM ADP or with 0.1 U/ml thrombin, and stirred in an aggregometer (PAP 4, Biodata, Hatboro, Penna., USA) at 37° C. and at 1000 revolutions per minute. The maximum increase in the translucency is taken as a measure of the aggregation. The test substances were added to the GFP at 37° C. and 2 min before activating with ADP or thrombin.

[1] = Homo sapiens, ADP-stimulated (10 μM ADP), read-out: IC50, inhibition of thrombocyte aggregation, ADP-stimulated
[2] = Homo sapiens, Thrombin-stimulated (0.1 U/ml thrombin), read-out: IC50, inhibition of thrombocyte aggregation, Thrombin-stimulated

| SMILES | IC50 [1] [nM] | IC50 [2] [nM] | IC50 (ADP-stimulated (10 μM ADP), read-out: IC50, inhibition of thrombocyte aggregation, ADP-stimulated) [nM] | IC50 (Thrombin-stimulated (0.1 U/ml thrombin), read-out: IC50, inhibition of thrombocyte aggregation, Thrombin-stimulated) [nM] |
| --- | --- | --- | --- | --- |
| CC(C)(C)C1(c2ccc(C(=N)N)cc2)NC(=O)N(CC(=O)N[C@@H](CC(=O)O)C(=O)N[C@H](C(=O)O)c2ccccc2)C1=O (stereo partly shown) [Example 29] | 50 | 40 | – | – |
| CCN1C(=O)N(CC(=O)N[C@@H](CC(=O)O)C(=O)N[C@H](C(=O)O)c2ccccc2)C(=O)C1(C)c1ccc(C(=N)N)cc1 (stereo partly drawn) [Example 24, ((R,S)-4-(4-(Aminoiminomethyl)phenyl)-3-ethyl-4-methyl-2,5-dioxoimidazolidin-1-yl)acetyl-L-aspartyl-L-phenylglycine] | – | – | 55 | 80 |
| CCCCCC(=O)NC(CNC(=O)CN1C(=O)NC(C)(c2ccc(C(=N)N)cc2)C1=O)C(=O)O (racemic) [Example 30, (R,S)-3-(((R,S)-4-(4-(Aminoiminomethyl)phenyl)-4-methyl-2,5-dioxoimidazolidin-1-yl)acetylamino)-2-pentylcarbonylaminopropionic acid] | 500 | 400 | – | – |
| CC1(c2ccc(C(=N)N)cc2)NC(=O)N(CC(=O)NC(CC(=O)O)c2cccc(C(=O)O)c2)C1=O (racemic) [Example 42, (R,S)-3-(((R,S)-4-(4-(Aminoiminomethyl)phenyl)-4-methyl-2,5-dioxoimidazolidin-1-yl)acetylamino)-3-(3-hydroxycarbonylphenyl)propionic acid] | 300 | 200 | – | – |
| CCCCCC(=O)NC(CNC(=O)CN1C(=O)N(C)C(C)(c2ccc(C(=N)N)cc2)C1=O)C(=O)O (racemic) [Example 31, (R,S)-3-(((R,S)-4-(4-(Aminoiminomethyl)phenyl)-3,4-dimethyl-2,5-dioxoimidazolidin-1-yl)acetylamino)-2-pentylcarbonylaminopropionic acid] | 3000 | 600 | – | – |
| COc1cc(C(CC(=O)O)NC(=O)CN2C(=O)NC(C)(c3ccc(C(=N)N)cc3)C2=O)cc(OC)c1OC (racemic) [Example 44, (R,S)-3-(((R,S)-4-(4-(Aminoiminomethyl)phenyl)-4-methyl-2,5-dioxoimidazolidin-1-yl)acetylamino)-3-(3,4,5-trimethoxyphenyl)propionic acid] | 400 | 200 | – | – |
| CC1(c2ccc(C(=N)N)cc2)NC(=O)N(CC(=O)NC(CS(=O)(=O)NC(=O)Nc2ccccc2)C(=O)OCc2ccccc2)C1=O (racemic) [Example 34, 2-((R,S)-4-(4-Aminoiminomethyl)phenyl)-4-methyl-2,5-dioxoimidazolidin-1-yl)-N-((R,S)-1-benzyloxycarbonyl-2-(3-phenylureidosulphonyl)ethyl)acetamide] | 2500 | 1500 | – | – |

Continued, values first:

| IC50 [1] [nM] | IC50 [2] [nM] | IC50 (ADP-stimulated (10 μM ADP), read-out: IC50, inhibition of thrombocyte aggregation, ADP-stimulated) [nM] | IC50 (Thrombin-stimulated (0.1 U/ml thrombin), read-out: IC50, inhibition of thrombocyte aggregation, Thrombin-stimulated) [nM] | SMILES |
| --- | --- | --- | --- | --- |
| 600 | 200 | – | – | CC1(c2ccc(C(=N)N)cc2)NC(=O)N(CC(=O)NC(CC(=O)O)C2CCCCC2)C1=O (racemic) [Example 49, (R,S)-3-(((R,S)-4-(4-(Aminoiminomethyl)phenyl)-4-methyl-2,5-dioxoimidazolidin-1-yl)acetylamino)-3-cyclohexylpropionic acid] |
| 100 | 300 | – | – | COc1ccc(C(CC(=O)O)NC(=O)CN2C(=O)NC(C)(c3ccc(C(=N)N)cc3)C2=O)cc1O (racemic) [Example 35, (R,S)-3-(((R,S)-4-(4-(Aminoiminomethyl)phenyl)-4-methyl-2,5-dioxoimidazolidin-1-yl)acetylamino)-3-(3-hydroxy-4-methoxyphenyl)propionic acid] |
| 65 | 70 | – | – | CC1(c2ccc(C(=N)N)cc2)NC(=O)N(CC(=O)N[C@@H](CC(=O)O)C(=O)NCC23CC4CC(CC(C4)C2)C3)C1=O (stereo partly drawn) [Example 70, (2-((R,S)-4-(4-(Aminoiminomethyl)phenyl)-4-methyl-2,5-dioxoimidazolidin-1-yl)acetyl)-L-aspartyl-(1-adamantylmethyl)amide] |
| 300 | 350 | – | – | CC1(c2ccc(C(=N)N)cc2)NC(=O)N(CC(=O)NC(CC(=O)O)c2cccc3ccccc23)C1=O (racemic) [Example 38, (R,S)-3-(((R,S)-4-(4-(Aminoiminomethyl)phenyl)-4-methyl-2,5-dioxoimidazolidin-1-yl)acetylamino)-3-(1-naphthyl)propionic acid] |
